In patent US9828385B2, “Spiro-oxazolones” (Hoffmann-La Roche Inc., priority 2014, dated 2017):

Target: T1, human V1a receptor (Homo sapiens, UniProt P37288)
T1 construct: expressed in transfected cells; host or cells: HEK293 cells, transiently transfected; cell membranes
Test: human V1a receptor binding studies (3H-Vasopressin, SPA beads)
Details: membranes of HEK293 cells transiently transfected with human V1a receptor, Ki by Cheng-Prussoff from IC50, read-out: pKi hV1a (converted)
Experimental: The human V1a receptor was cloned by RT-PCR from total human liver RNA. The coding sequence was subcloned in an expression vector after sequencing to confirm the identity of the amplified sequence. […] Cell membranes were prepared from HEK293 cells transiently transfected with the expression vector and grown in 20 liter fermenters with the following protocol.
50 g of cells are re-suspended in 30 ml freshly prepared ice cold Lysis buffer (50 mM HEPES, 1 mM EDTA, 10 mM MgCl2 adjusted to pH=7.4+complete cocktail of protease inhibitor (Roche Diagnostics)). Homogenized with Polytron for 1 min and sonicated on ice for 2×2 minutes at 80% intensity (Vibracell sonicator). The preparation is centrifuged 20 min at 500 g at 4° C., the pellet is discarded and the supernatant centrifuged 1 hour at 43′000 g at 4° C. (19′000 rpm). The pellet is re-suspended in 12.5 ml Lysis buffer+12.5 ml Sucrose 20% and homogenized using a Polytron for 1-2 min. The protein concentration is determined by the Bradford method and aliquots are stored at −80° C. until use. For binding studies 60 mg Yttrium silicate SPA beads (Amersham) are mixed with an aliquot of membrane in binding buffer (50 mM Tris, 120 mM NaCl, 5 mM KCl, 2 mM CaCl2, 10 mM MgCl2) for 15 minutes with mixing. 50 μl of bead/membrane mixture is then added to each well of a 96 well plate, followed by 50 μl of 4 nM 3H-Vasopressin (American Radiolabeled Chemicals). For total binding measurement 100 μl of binding buffer are added to the respective wells, for non-specific binding 100 μl of […] cold vasopressin and for compound testing 100 μl of a serial dilution of each compound in 2% DMSO. The plate is incubated 1 h at room temperature, centrifuged 1 min at 1000 g and counted on a Packard Top-Count. Non-specific binding counts are subtracted from each well and data is normalized to the maximum specific binding set at 100%. To calculate an IC 50 the curve is fitted using a non-linear regression model (XLfit) and the Ki is calculated using the Cheng-Prussoff equation.

T1 sequence (P37288 whole entry): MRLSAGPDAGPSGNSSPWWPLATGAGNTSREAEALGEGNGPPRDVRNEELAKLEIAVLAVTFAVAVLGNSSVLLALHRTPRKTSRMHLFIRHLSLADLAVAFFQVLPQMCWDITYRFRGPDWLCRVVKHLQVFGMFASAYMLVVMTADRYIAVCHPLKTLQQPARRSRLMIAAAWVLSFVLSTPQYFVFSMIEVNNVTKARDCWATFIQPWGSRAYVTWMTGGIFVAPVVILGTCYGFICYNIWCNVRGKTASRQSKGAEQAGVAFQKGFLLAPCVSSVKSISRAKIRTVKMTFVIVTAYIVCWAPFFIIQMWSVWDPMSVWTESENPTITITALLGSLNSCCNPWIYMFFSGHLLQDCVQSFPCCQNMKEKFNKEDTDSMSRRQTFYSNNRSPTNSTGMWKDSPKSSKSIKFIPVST

Question: `O=C1N=C(N2CCC3(CC2)OCc2ccccc23)OC1C(O)c1ccccc1` (single isomer, unassigned) [Example 36, 5-(Hydroxy(phenyl)methyl)-2-(1′H,3H-spiro[2-benzofuran-1,4′-piperidin]-1′-yl)-1,3-oxazol-4(5H)-one diastereomer a, enantiomer A] was tested. Which Ki did it give?
Answer: 31.6 nM

Question: How did the Ki turn out when `O=C1N=C(N2CCC3(CC2)OCc2ccccc23)OC1C(O)c1ccccc1` (single isomer, unassigned) [Example 37, 5-(Hydroxy(phenyl)methyl)-2-(1′H,3H-spiro[2-benzofuran-1,4′-piperidin]-1′-yl)-1,3-oxazol-4(5H)-one diastereomer a, enantiomer B] was run?
Answer: 126 nM

Question: How did the Ki turn out when `O=C1N=C(N2CCC3(CC2)OCc2ccccc23)OC1C(O)c1ccccc1` (single isomer, unassigned) [Example 38, 5-(Hydroxy(phenyl)methyl)-2-(1′H,3H-spiro[2-benzofuran-1,4′-piperidin]-1′-yl)-1,3-oxazol-4(5H)-one diastereomer b, enantiomer A] was run?
Answer: 794 nM

Question: Which Ki does the source give for `O=C1N=C(N2CCC3(CC2)OCc2ccccc23)OC1C(O)c1ccccc1` (single isomer, unassigned) [Example 39, 5-(Hydroxy(phenyl)methyl)-2-(1′H,3H-spiro[2-benzofuran-1,4′-piperidin]-1′-yl)-1,3-oxazol-4(5H)-one diastereomer b, enantiomer B] here?
Answer: 126 nM

Question: Which Ki does the source give for `O=C1N=C(N2CCC3(CC2)OCc2ccccc23)OC1C(F)c1ccc(Cl)cc1` (single isomer, unassigned) [Example 46, 5-((4-Chlorophenyl)fluoromethyl)-2-(1′H,3H-spiro[2-benzofuran-1,4′-piperidin]-1′-yl)-1,3-oxazol-4(5H)-one diastereomer a, enantiomer A] here?
Answer: 31.6 nM

Question: `O=C1N=C(N2CCC3(CC2)OCc2ccccc23)OC1C(F)c1ccc(Cl)cc1` (single isomer, unassigned) [Example 47, 5-((4-Chlorophenyl)fluoromethyl)-2-(1′H,3H-spiro[2-benzofuran-1,4′-piperidin]-1′-yl)-1,3-oxazol-4(5H)-one diastereomer a, enantiomer B] was tested. Which Ki did it give?
Answer: 20 nM

Question: How did the Ki turn out when `O=C1N=C(N2CCC3(CC2)OCc2ccccc23)OC1C(F)c1ccc(Cl)cc1` (single isomer, unassigned) [Example 48, 5-((4-Chlorophenyl)fluoromethyl)-2-(1′H,3H-spiro[2-benzofuran-1,4′-piperidin]-1′-yl)-1,3-oxazol-4(5H)-one diastereomer b, enantiomer A] was run?
Answer: 39.8 nM

Question: `O=C1N=C(N2CCC3(CC2)OCc2ccccc23)OC1C(F)c1ccc(Cl)cc1` (single isomer, unassigned) [Example 49, 5-((4-Chlorophenyl)fluoromethyl)-2-(1′H,3H-spiro[2-benzofuran-1,4′-piperidin]-1′-yl)-1,3-oxazol-4(5H)-one diastereomer b, enantiomer B] was tested. Which Ki did it give?
Answer: 2 nM

Question: For `O=C1OC2(CCN(C3=NC(=O)C(C(O)c4ccc(Cl)cc4)O3)CC2)c2ccccc21` (single isomer, unassigned) [Example 50, 1′-{-5-[(4-Chlorophenyl)(hydroxy)methyl]-4-oxo-4,5-dihydro-1,3-oxazol-2-yl}-3H-spiro[2-benzofuran-1,4′-piperidin]-3-one diastereomer a, enantiomer A], which Ki is on record?
Answer: 20 nM

Question: `O=C1OC2(CCN(C3=NC(=O)C(C(O)c4ccc(Cl)cc4)O3)CC2)c2ccccc21` (single isomer, unassigned) [Example 51, 1′-{-5-[(4-Chlorophenyl)(hydroxy)methyl]-4-oxo-4,5-dihydro-1,3-oxazol-2-yl}-3H-spiro[2-benzofuran-1,4′-piperidin]-3-one diastereomer a, enantiomer B] was tested. Which Ki did it give?
Answer: 158 nM

Question: For `O=C1OC2(CCN(C3=NC(=O)C(C(O)c4ccc(Cl)cc4)O3)CC2)c2ccccc21` (single isomer, unassigned) [Example 52, 1′-{-5-[(4-Chlorophenyl)(hydroxy)methyl]-4-oxo-4,5-dihydro-1,3-oxazol-2-yl}-3H-spiro[2-benzofuran-1,4′-piperidin]-3-one diastereomer b, enantiomer A], which Ki is on record?
Answer: 631 nM

Question: With `O=C1OC2(CCN(C3=NC(=O)C(C(O)c4ccc(Cl)cc4)O3)CC2)c2ccccc21` (single isomer, unassigned) [Example 53, 1′-{-5-[(4-Chlorophenyl)(hydroxy)methyl]-4-oxo-4,5-dihydro-1,3-oxazol-2-yl}-3H-spiro[2-benzofuran-1,4′-piperidin]-3-one diastereomer b, enantiomer B] as the compound, how does the Ki read?
Answer: 158 nM

Question: `CCCCC1OC(N2CCC3(CC2)OCc2ccccc23)=NC1=O` (single isomer, unassigned; (+)) [Example 4, (+)-5-Butyl-2-(1′H,3H-spiro[2-benzofuran-1,4′-piperidin]-1′-yl)-1,3-oxazol-4(5H)-one] was tested. Which Ki did it give?
Answer: 5.01 nM

Question: With `CCCCC1(C)OC(N2CCC3(CC2)OCc2ccccc23)=NC1=O` (single isomer, unassigned; (+)) [Example 67, (+)-5-Butyl-5-methyl-2-(1′H,3H-spiro[2-benzofuran-1,4′-piperidin]-1′-yl)-1,3-oxazol-4(5H)-one] as the compound, how does the Ki read?
Answer: 25.1 nM

Question: Which Ki does the source give for `CC1(Cc2ccccc2)OC(N2CCC3(CC2)OCc2ccccc23)=NC1=O` (single isomer, unassigned; (+)) [Example 70, (+)-5-Benzyl-5-methyl-2-(1′H,3H-spiro[2-benzofuran-1,4′-piperidin]-1′-yl)-1,3-oxazol-4(5H)-one] here?
Answer: 7.94 nM

Question: For `CC1(CC2CCCC2)OC(N2CCC3(CC2)OCc2ccccc23)=NC1=O` (single isomer, unassigned; (+)) [Example 77, (+)-5-(Cyclopentylmethyl)-5-methyl-2-(1′H,3H-spiro[2-benzofuran-1,4′-piperidin]-1′-yl)-1,3-oxazol-4(5H)-one], which Ki is on record?
Answer: 2.51 nM

Question: `CC1(Cc2ccc(Cl)nc2)OC(N2CCC3(CC2)OCc2ccccc23)=NC1=O` (single isomer, unassigned; (+)) [Example 84, (+)-5-[(6-Chloropyridin-3-yl)methyl]-5-methyl-2-(1′H,3H-spiro[2-benzofuran-1,4′-piperidin]-1′-yl)-1,3-oxazol-4(5H)-one] was tested. Which Ki did it give?
Answer: 501 nM

Question: For `CC1(Cc2ccc(Cl)s2)OC(N2CCC3(CC2)OCc2ccccc23)=NC1=O` (single isomer, unassigned; (+)) [Example 86, (+)-5-[(5-Chlorothiophen-2-yl)methyl]-5-methyl-2-(1′H,3H-spiro[2-benzofuran-1,4′-piperidin]-1′-yl)-1,3-oxazol-4(5H)-one], which Ki is on record?
Answer: 1.26 nM

Question: How did the Ki turn out when `CCOCC1(C)OC(N2CCC3(CC2)OCc2ccccc23)=NC1=O` (single isomer, unassigned; (+)) [Example 96, (+)-5-(Ethoxymethyl)-5-methyl-2-(1′H,3H-spiro[2-benzofuran-1,4′-piperidin]-1′-yl)-1,3-oxazol-4(5H)-one] was run?
Answer: 251 nM

Question: Which Ki does the source give for `CCCCC1OC(N2CCC3(CC2)OCc2ccccc23)=NC1=O` (single isomer, unassigned; (-)) [Example 3, (−)-5-Butyl-2-(1′H,3H-spiro[2-benzofuran-1,4′-piperidin]-1′-yl)-1,3-oxazol-4(5H)-one] here?
Answer: 50.1 nM

Question: How did the Ki turn out when `CCCCC1(C)OC(N2CCC3(CC2)OCc2ccccc23)=NC1=O` (single isomer, unassigned; (-)) [Example 68, (−)-5-Butyl-5-methyl-2-(1′H,3H-spiro[2-benzofuran-1,4′-piperidin]-1′-yl)-1,3-oxazol-4(5H)-one] was run?
Answer: 200 nM

Question: With `CC1(Cc2ccccc2)OC(N2CCC3(CC2)OCc2ccccc23)=NC1=O` (single isomer, unassigned; (-)) [Example 71, (−)-5-Benzyl-5-methyl-2-(1′H,3H-spiro[2-benzofuran-1,4′-piperidin]-1′-yl)-1,3-oxazol-4(5H)-one] as the compound, how does the Ki read?
Answer: 79.4 nM

Question: How did the Ki turn out when `CC1(CC2CCCC2)OC(N2CCC3(CC2)OCc2ccccc23)=NC1=O` (single isomer, unassigned; (-)) [Example 78, (−)-5-(Cyclopentylmethyl)-5-methyl-2-(1′H,3H-spiro[2-benzofuran-1,4′-piperidin]-1′-yl)-1,3-oxazol-4(5H)-one] was run?
Answer: 100 nM

Question: With `CC1(Cc2ccc(Cl)nc2)OC(N2CCC3(CC2)OCc2ccccc23)=NC1=O` (single isomer, unassigned; (-)) [Example 83, (−)-5-[(6-Chloropyridin-3-yl)methyl]-5-methyl-2-(1′H,3H-spiro[2-benzofuran-1,4′-piperidin]-1′-yl)-1,3-oxazol-4(5H)-one] as the compound, how does the Ki read?
Answer: 39.8 nM

Question: For `CC1(Cc2ccc(Cl)s2)OC(N2CCC3(CC2)OCc2ccccc23)=NC1=O` (single isomer, unassigned; (-)) [Example 87, (−)-5-[(5-Chlorothiophen-2-yl)methyl]-5-methyl-2-(1′H,3H-spiro[2-benzofuran-1,4′-piperidin]-1′-yl)-1,3-oxazol-4(5H)-one], which Ki is on record?
Answer: 200 nM
